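The compound was tested at five concentrations on cells cultured in 96-well plates, with a 48-hour exposure period. Abbreviation: GI50, concentration required for 50% inhibition of growth.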 The source made the active and inactive calls. Cut-off read from the data, not from the text of the source: active = GI50 up to about 1.1 µM and inactive = higher.
Columns and labels:
Assay in all cases: inhibition of tumour cell growth, NCI panel, 48 h
M19-MEL = tested on: M19-MEL
HT-29 = tested on: HT-29
TK-10 = tested on: TK-10
HCT-116 = tested on: HCT-116
A498 = tested on: A498
A549 = tested on: A549
OVCAR-3 = tested on: OVCAR-3
KM12 = tested on: KM12
UACC-257 = tested on: UACC-257
EKVX = tested on: EKVX
SF-268 = tested on: SF-268
OVCAR-5 = tested on: OVCAR-5
SK-MEL-28 = tested on: SK-MEL-28
RPMI-8226 = tested on: RPMI-8226
HOP-62 = tested on: HOP-62
OVCAR-8 = tested on: OVCAR-8
CCRF-CEM = tested on: CCRF-CEM

Measured: GI50

CS/C(=C(\S)c1ccccc1)c1ccccc1
inactive: M19-MEL > 100 µM | HT-29 > 100 µM | TK-10 > 100 µM | HCT-116 > 100 µM | A498 > 100 µM | A549 > 100 µM | OVCAR-3 > 100 µM | KM12 > 100 µM | UACC-257 > 100 µM | EKVX > 100 µM | SF-268 > 100 µM | OVCAR-5 > 100 µM | SK-MEL-28 > 100 µM | RPMI-8226 > 100 µM | HOP-62 > 100 µM | OVCAR-8 > 100 µM

O=c1c2ccccc2nc(-c2ccccc2)n1NC(=S)Nc1cccc(Cl)c1
inactive: M19-MEL > 100 µM | HT-29 > 100 µM | TK-10 36.6 µM | HCT-116 95.7 µM | A498 > 100 µM | A549 > 100 µM | KM12 > 100 µM | UACC-257 > 100 µM | CCRF-CEM > 100 µM | SF-268 43.7 µM | OVCAR-5 > 100 µM | SK-MEL-28 > 100 µM | RPMI-8226 > 100 µM | HOP-62 60.3 µM | OVCAR-8 > 100 µM

N=C(N)N/N=C(/c1nc2ccc([N+](=O)[O-])cc2[nH]c1=O)C(O)c1ccc([N+](=O)[O-])cc1 (stereo not given)
inactive: M19-MEL > 100 µM | HT-29 54.1 µM | HCT-116 > 100 µM | A549 60.8 µM | OVCAR-3 94.2 µM | KM12 36.1 µM | UACC-257 > 100 µM | CCRF-CEM > 100 µM | SF-268 > 100 µM | OVCAR-5 > 100 µM | SK-MEL-28 78.5 µM | RPMI-8226 > 100 µM | HOP-62 37.8 µM | OVCAR-8 > 100 µM

CC(=O)OC1[C@H]2c3cc4c(cc3CN3CCC(C[C@@H]1OC(C)=O)C23)OCO4 (stereo not given in full)
inactive: M19-MEL > 75 µM | HT-29 > 75 µM | TK-10 > 75 µM | HCT-116 > 75 µM | A549 > 75 µM | OVCAR-3 > 75 µM | KM12 > 75 µM | UACC-257 > 75 µM | CCRF-CEM > 75 µM | EKVX > 75 µM | SF-268 > 75 µM | SK-MEL-28 > 75 µM | RPMI-8226 > 75 µM | HOP-62 > 75 µM | OVCAR-8 > 75 µM

C/C(=N/NC(N)=S)C(CN1CCOCC1)C(C1=C(O)c2ccccc2OC1)c1ccccc1 (stereo not given)
inactive: M19-MEL > 100 µM | HT-29 > 100 µM | TK-10 > 100 µM | HCT-116 85.5 µM | A498 > 100 µM | A549 > 100 µM | OVCAR-3 > 100 µM | KM12 > 100 µM | UACC-257 > 100 µM | CCRF-CEM 60.7 µM | EKVX > 100 µM | SF-268 41.8 µM | OVCAR-5 > 100 µM | RPMI-8226 90.2 µM | OVCAR-8 > 100 µM

CC1(C)OC(=O)C(C#N)=C1/C=C/c1coc2ccc(Cl)cc2c1=O
inactive: M19-MEL 41.2 µM | HT-29 > 10 µM | HCT-116 33 µM | A549 45.7 µM | OVCAR-3 18.4 µM | KM12 41.3 µM | UACC-257 31.3 µM | CCRF-CEM 17.7 µM | EKVX 47 µM | SF-268 29.5 µM | OVCAR-5 45.1 µM | SK-MEL-28 47.5 µM | RPMI-8226 26.9 µM | HOP-62 23.7 µM | OVCAR-8 25.7 µM

O=[N+]([O-])c1ccc(-c2ccc(-c3csc(Nc4ccccc4)n3)o2)cc1
inactive: M19-MEL 29.9 µM | HT-29 22.7 µM | TK-10 19.1 µM | HCT-116 21.5 µM | A498 17.9 µM | A549 > 55 µM | OVCAR-3 19.3 µM | KM12 19.3 µM | UACC-257 17.9 µM | CCRF-CEM 2.93 µM | EKVX 19.1 µM | SF-268 18.2 µM | OVCAR-5 17.7 µM | SK-MEL-28 17.6 µM | RPMI-8226 12.2 µM | HOP-62 > 68.4 µM | OVCAR-8 19.5 µM

CSC(C1c2ccccc2N(C)c2[nH]c(=O)n(C)c(=O)c21)S(=O)(=O)c1ccc(C)cc1 (stereo not given)
inactive: M19-MEL 40.3 µM | HT-29 > 100 µM | TK-10 > 100 µM | HCT-116 68.2 µM | A498 > 100 µM | A549 > 100 µM | OVCAR-3 > 100 µM | UACC-257 60 µM | CCRF-CEM 33.3 µM | EKVX 33.6 µM | SF-268 > 100 µM | OVCAR-5 > 100 µM | SK-MEL-28 > 100 µM | RPMI-8226 > 10 µM | HOP-62 > 100 µM | OVCAR-8 > 100 µM

COc1cccc(NC(=O)CC(=O)N2NC(c3ccccc3)C(/N=N/c3cccc(C(=O)O)c3)C2=O)c1 (stereo not given)
inactive: M19-MEL > 100 µM | HT-29 > 100 µM | TK-10 > 100 µM | HCT-116 > 100 µM | A498 > 100 µM | A549 > 100 µM | OVCAR-3 38.2 µM | KM12 39.4 µM | UACC-257 > 100 µM | EKVX > 100 µM | SF-268 > 100 µM | OVCAR-5 > 100 µM | SK-MEL-28 > 100 µM | RPMI-8226 70 µM | HOP-62 > 100 µM | OVCAR-8 > 100 µM

Cn1cc2c(n1)c(N/N=C/c1ccccc1)nn1nnnc21
inactive: M19-MEL > 100 µM | HT-29 > 100 µM | TK-10 > 100 µM | HCT-116 > 100 µM | A498 > 100 µM | A549 > 100 µM | OVCAR-3 > 100 µM | UACC-257 > 100 µM | CCRF-CEM > 100 µM | EKVX > 100 µM | SF-268 > 100 µM | SK-MEL-28 > 100 µM | RPMI-8226 > 100 µM | HOP-62 > 100 µM | OVCAR-8 > 100 µM

[O-]c1c2c(nn1-c1ccc(Cl)cc1)c1ccccc1c[n+]2Cc1ccccc1
inactive: M19-MEL > 10 µM | HT-29 > 100 µM | TK-10 > 100 µM | HCT-116 > 100 µM | A549 63.4 µM | OVCAR-3 > 100 µM | KM12 > 100 µM | UACC-257 > 100 µM | CCRF-CEM > 100 µM | EKVX > 100 µM | SF-268 95.3 µM | OVCAR-5 > 100 µM | SK-MEL-28 > 100 µM | RPMI-8226 > 100 µM | HOP-62 > 100 µM | OVCAR-8 65.9 µM

Fc1cccc(F)c1C1SCc2nc3ccccc3n21 (stereo not given) [THIAZOLOBENZIMIDAZOLE]
inactive: M19-MEL 44.9 µM | HT-29 62.7 µM | TK-10 61.4 µM | HCT-116 65.2 µM | A498 > 100 µM | A549 > 100 µM | OVCAR-3 47.4 µM | KM12 > 100 µM | UACC-257 60.8 µM | CCRF-CEM 52.4 µM | EKVX 64.6 µM | SF-268 > 100 µM | OVCAR-5 85.9 µM | RPMI-8226 35.2 µM | HOP-62 > 100 µM | OVCAR-8 77.8 µM

CP(=O)(CCSc1ccccc1)c1ccccc1 (stereo not given)
inactive: M19-MEL > 100 µM | HT-29 > 100 µM | TK-10 > 100 µM | HCT-116 > 100 µM | A498 > 100 µM | A549 > 100 µM | OVCAR-3 > 100 µM | UACC-257 > 100 µM | CCRF-CEM > 100 µM | EKVX > 100 µM | SF-268 > 100 µM | SK-MEL-28 > 100 µM | RPMI-8226 > 100 µM | HOP-62 > 100 µM | OVCAR-8 > 100 µM

COc1ccc(NCC#N)cc1
inactive: M19-MEL > 100 µM | HT-29 > 100 µM | TK-10 > 100 µM | HCT-116 > 100 µM | A498 > 100 µM | A549 > 100 µM | OVCAR-3 > 100 µM | KM12 > 100 µM | UACC-257 > 100 µM | CCRF-CEM > 100 µM | EKVX > 100 µM | SF-268 > 100 µM | OVCAR-5 > 100 µM | SK-MEL-28 > 100 µM | RPMI-8226 > 100 µM | OVCAR-8 > 100 µM

O=C(CSc1nnc(Cc2ccccc2)o1)Nc1ccc([N+](=O)[O-])cc1
inactive: M19-MEL > 100 µM | HT-29 48 µM | TK-10 62.2 µM | HCT-116 > 100 µM | A498 > 100 µM | A549 59.4 µM | OVCAR-3 > 100 µM | KM12 > 100 µM | UACC-257 > 100 µM | CCRF-CEM > 100 µM | SF-268 > 100 µM | OVCAR-5 > 100 µM | SK-MEL-28 > 100 µM | RPMI-8226 > 100 µM | HOP-62 > 100 µM | OVCAR-8 > 100 µM

FC(F)(F)c1nc(-c2ccccc2)oc1Sc1oc(-c2ccccc2)nc1C(F)(F)F
inactive: M19-MEL > 100 µM | HT-29 > 100 µM | TK-10 > 100 µM | HCT-116 > 100 µM | A498 > 100 µM | A549 > 100 µM | OVCAR-3 > 100 µM | KM12 > 100 µM | UACC-257 > 100 µM | CCRF-CEM > 100 µM | EKVX > 100 µM | SF-268 52.5 µM | OVCAR-5 > 100 µM | RPMI-8226 93.3 µM | HOP-62 58.7 µM | OVCAR-8 36.7 µM

CCOC(=O)/C(=C\c1cccs1)P(=O)(OCC)OCC
inactive: M19-MEL 21.5 µM | HT-29 20.6 µM | TK-10 36.6 µM | HCT-116 19.2 µM | A549 21 µM | OVCAR-3 19.8 µM | KM12 17.1 µM | UACC-257 23.2 µM | CCRF-CEM 29.9 µM | EKVX 23.8 µM | SF-268 24.1 µM | OVCAR-5 21.9 µM | SK-MEL-28 17.2 µM | RPMI-8226 20.4 µM | HOP-62 48.2 µM | OVCAR-8 25.4 µM

— ChEMBL document CHEMBL1201862, “PubChem BioAssay data set” (2004)
